Consider 21 compounds from BindingDB's records for doi:10.1016/S0960-894X(02)00564-4 (Universita Degli Studi Di Firenze, 2002).

SMILES strings stand for the structures.

The experiment deals with T1, Collagenase ColG (Hathewaya histolytica, UniProt Q9X721).
T1 sequence (Q9X721 whole entry): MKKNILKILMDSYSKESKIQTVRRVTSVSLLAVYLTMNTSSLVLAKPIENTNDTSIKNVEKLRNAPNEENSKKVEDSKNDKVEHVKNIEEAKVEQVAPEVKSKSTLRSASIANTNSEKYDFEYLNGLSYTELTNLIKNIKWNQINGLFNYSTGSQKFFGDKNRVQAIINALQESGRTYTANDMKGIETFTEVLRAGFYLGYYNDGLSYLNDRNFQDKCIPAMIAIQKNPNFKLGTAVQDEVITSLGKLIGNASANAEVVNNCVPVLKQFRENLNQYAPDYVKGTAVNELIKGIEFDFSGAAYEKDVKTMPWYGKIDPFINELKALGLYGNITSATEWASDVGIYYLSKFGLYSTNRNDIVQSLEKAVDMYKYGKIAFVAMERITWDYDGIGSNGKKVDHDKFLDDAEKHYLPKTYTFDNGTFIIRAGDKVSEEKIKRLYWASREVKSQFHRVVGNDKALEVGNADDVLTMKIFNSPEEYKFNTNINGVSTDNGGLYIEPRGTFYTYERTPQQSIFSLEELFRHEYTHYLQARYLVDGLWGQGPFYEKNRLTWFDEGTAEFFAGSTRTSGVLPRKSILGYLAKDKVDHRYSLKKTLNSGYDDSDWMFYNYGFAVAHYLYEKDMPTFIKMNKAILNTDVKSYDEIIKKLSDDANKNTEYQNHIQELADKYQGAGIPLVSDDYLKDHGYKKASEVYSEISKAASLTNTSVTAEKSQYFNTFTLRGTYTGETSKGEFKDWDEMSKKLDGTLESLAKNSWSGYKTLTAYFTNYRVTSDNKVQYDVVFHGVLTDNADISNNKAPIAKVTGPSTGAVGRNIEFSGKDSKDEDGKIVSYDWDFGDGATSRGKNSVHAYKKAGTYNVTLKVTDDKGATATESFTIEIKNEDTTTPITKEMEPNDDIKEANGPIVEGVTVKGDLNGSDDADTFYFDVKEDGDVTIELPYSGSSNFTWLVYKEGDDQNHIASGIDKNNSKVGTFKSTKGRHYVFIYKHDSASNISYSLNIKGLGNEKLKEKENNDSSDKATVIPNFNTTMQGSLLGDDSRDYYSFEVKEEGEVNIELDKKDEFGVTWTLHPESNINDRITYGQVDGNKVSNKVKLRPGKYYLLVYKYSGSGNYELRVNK
As to the kind of experiment: MMP Enzyme Inhibition Assay. On the procedure:
Initial rates for the hydrolysis of the thioester substrate were used for assessing the catalytic activity and inhibition of the MMPs by the spectrophotometric method. The change of absorbance at 405 nm was monitored. The inhibition constant Ki was then determined by using Easson-Stedman plots and a linear regression program.
Broadly, the Ki is the dissociation constant of the complex between target and ligand, obtained from inhibition or displacement. Lower therefore signals higher affinity. `Cc1cc(C)c(S(=O)(=O)NC(Cc2ccccc2)C(=O)NC(C)C(=O)Nc2nnc(S)s2)c(C)c1` (stereo unspecified) [3-phenyl-N-{1-[(5-sulfanyl-1,3,4-thiadiazol-2-yl)carbamoyl]ethyl}-2-[(2,4,6-trimethylbenzene)sulfonamido]propanamide] yielded a Ki of 17 µM.
As for `CC(NC(=O)C(Cc1ccccc1)NC(=O)NS(=O)(=O)c1ccccc1)C(=O)Nc1nnc(S)s1` (stereo unspecified) [2-{[(benzenesulfonyl)carbamoyl]amino}-3-phenyl-N-{1-[(5-sulfanyl-1,3,4-thiadiazol-2-yl)carbamoyl]ethyl}propanamide], the affinity corresponds to a Ki of 3 µM.
In turn, `CC(NC(=O)C(Cc1ccccc1)NS(=O)(=O)c1cccc2c(N(C)C)cccc12)C(=O)Nc1nnc(S)s1` (stereo unspecified) [2-{[5-(dimethylamino)naphthalene-1-]sulfonamido}-3-phenyl-N-{1-[(5-sulfanyl-1,3,4-thiadiazol-2-yl)carbamoyl]ethyl}propanamide] yielded a Ki of 43 µM.
The compound `CC(NC(=O)C(Cc1ccccc1)NC(=O)NS(=O)(=O)c1ccc(F)cc1)C(=O)Nc1nnc(S)s1` (stereo unspecified) [2-({[(4-fluorobenzene)sulfonyl]carbamoyl}amino)-3-phenyl-N-{1-[(5-sulfanyl-1,3,4-thiadiazol-2-yl)carbamoyl]ethyl}propanamide] showed a Ki of 0.2 µM.
Consider `COc1ccc(S(=O)(=O)NC(Cc2ccccc2)C(=O)NC(C)C(=O)Nc2nnc(S)s2)cc1` (stereo unspecified) [2-[(4-methoxybenzene)sulfonamido]-3-phenyl-N-{1-[(5-sulfanyl-1,3,4-thiadiazol-2-yl)carbamoyl]ethyl}propanamide], for which the Ki came out at 14 µM.
Consider `CC(NC(=O)C(Cc1ccccc1)NS(=O)(=O)c1ccc(I)cc1)C(=O)Nc1nnc(S)s1` (stereo unspecified) [2-[(4-iodobenzene)sulfonamido]-3-phenyl-N-{1-[(5-sulfanyl-1,3,4-thiadiazol-2-yl)carbamoyl]ethyl}propanamide], for which the Ki was 14 µM.
With `CC(NC(=O)C(Cc1ccccc1)NS(=O)(=O)c1cccc2cccnc12)C(=O)Nc1nnc(S)s1` (stereo unspecified) [3-phenyl-2-(quinoline-8-sulfonamido)-N-{1-[(5-sulfanyl-1,3,4-thiadiazol-2-yl)carbamoyl]ethyl}propanamide], the affinity, expressed as Ki, was 36 µM.
With `CC(NC(=O)C(Cc1ccccc1)NS(=O)(=O)c1cccc(C(F)(F)F)c1)C(=O)Nc1nnc(S)s1` (stereo unspecified) [3-phenyl-N-{1-[(5-sulfanyl-1,3,4-thiadiazol-2-yl)carbamoyl]ethyl}-2-{[3-(trifluoromethyl)benzene]sulfonamido}propanamide] the figure was 9 µM; with `Cc1ccc(S(=O)(=O)NC(=O)NC(Cc2ccccc2)C(=O)NC(C)C(=O)Nc2nnc(S)s2)cc1` (stereo unspecified) [2-({[(4-methylbenzene)sulfonyl]carbamoyl}amino)-3-phenyl-N-{1-[(5-sulfanyl-1,3,4-thiadiazol-2-yl)carbamoyl]ethyl}propanamide], 4 µM; with `CC(NC(=O)C(Cc1ccccc1)NS(=O)(=O)CC12CCC(CC1=O)C2(C)C)C(=O)Nc1nnc(S)s1` (stereo unspecified) [2-[({7,7-dimethyl-2-oxobicyclo[2.2.1]heptan-1-yl}methane)sulfonamido]-3-phenyl-N-{1-[(5-sulfanyl-1,3,4-thiadiazol-2-yl)carbamoyl]ethyl}propanamide], 25 µM.
With `CC(NC(=O)C(Cc1ccccc1)NC(=O)NS(=O)(=O)c1ccc(Cl)cc1)C(=O)Nc1nnc(S)s1` (stereo unspecified) [2-({[(4-chlorobenzene)sulfonyl]carbamoyl}amino)-3-phenyl-N-{1-[(5-sulfanyl-1,3,4-thiadiazol-2-yl)carbamoyl]ethyl}propanamide] the figure was 0.3 µM.
Regarding `CC(NC(=O)C(Cc1ccccc1)NS(=O)(=O)c1ccc(F)cc1)C(=O)Nc1nnc(S)s1` (stereo unspecified) [2-[(4-fluorobenzene)sulfonamido]-3-phenyl-N-{1-[(5-sulfanyl-1,3,4-thiadiazol-2-yl)carbamoyl]ethyl}propanamide], the Ki was 21 µM.
For `CC(NC(=O)C(Cc1ccccc1)NS(=O)(=O)c1ccc(Br)cc1)C(=O)Nc1nnc(S)s1` (stereo unspecified) [2-[(4-bromobenzene)sulfonamido]-3-phenyl-N-{1-[(5-sulfanyl-1,3,4-thiadiazol-2-yl)carbamoyl]ethyl}propanamide], the affinity, expressed as Ki, was 16 µM.
As for `CC(NC(=O)C(Cc1ccccc1)NS(=O)(=O)Cc1ccccc1)C(=O)Nc1nnc(S)s1` (stereo unspecified) [3-phenyl-2-(phenylmethane)sulfonamido-N-{1-[(5-sulfanyl-1,3,4-thiadiazol-2-yl)carbamoyl]ethyl}propanamide], the Ki is 19 µM.
For the compound `CC(NC(=O)C(Cc1ccccc1)NS(=O)(=O)c1ccc([N+](=O)[O-])cc1)C(=O)Nc1nnc(S)s1` (stereo unspecified) [2-[(4-nitrobenzene)sulfonamido]-3-phenyl-N-{1-[(5-sulfanyl-1,3,4-thiadiazol-2-yl)carbamoyl]ethyl}propanamide], the Ki is 13 µM.
Turning to `Cc1ccc(S(=O)(=O)NC(Cc2ccccc2)C(=O)NC(C)C(=O)Nc2nnc(S)s2)cc1` (stereo unspecified) [2-[(4-methylbenzene)sulfonamido]-3-phenyl-N-{1-[(5-sulfanyl-1,3,4-thiadiazol-2-yl)carbamoyl]ethyl}propanamide], affinity was put at a Ki of 15 µM.
Compound `CC(NC(=O)C(Cc1ccccc1)NS(=O)(=O)c1cc(Cl)ccc1Cl)C(=O)Nc1nnc(S)s1` (stereo unspecified) [2-[(2,5-dichlorobenzene)sulfonamido]-3-phenyl-N-{1-[(5-sulfanyl-1,3,4-thiadiazol-2-yl)carbamoyl]ethyl}propanamide] showed an inhibition constant (Ki) of 15 µM.
For `CC(=O)Nc1ccc(S(=O)(=O)NC(Cc2ccccc2)C(=O)NC(C)C(=O)Nc2nnc(S)s2)cc1` (stereo unspecified) [2-[(4-acetamidobenzene)sulfonamido]-3-phenyl-N-{1-[(5-sulfanyl-1,3,4-thiadiazol-2-yl)carbamoyl]ethyl}propanamide] the value was 16 µM.
For `CC(NC(=O)C(Cc1ccccc1)NS(=O)(=O)c1cccs1)C(=O)Nc1nnc(S)s1` (stereo unspecified) [3-phenyl-N-{1-[(5-sulfanyl-1,3,4-thiadiazol-2-yl)carbamoyl]ethyl}-2-(thiophene-2-sulfonamido)propanamide] the value was 9 µM.
Regarding `CC(NC(=O)C(Cc1ccccc1)NS(=O)(=O)c1c(F)c(F)c(F)c(F)c1F)C(=O)Nc1nnc(S)s1` (stereo unspecified) [2-[(2,3,4,5,6-pentafluorobenzene)sulfonamido]-3-phenyl-N-{1-[(5-sulfanyl-1,3,4-thiadiazol-2-yl)carbamoyl]ethyl}propanamide], affinity was put at a Ki of 5 µM.
In turn, `CC(NC(=O)C(Cc1ccccc1)NS(=O)(=O)c1ccc2ccccc2c1)C(=O)Nc1nnc(S)s1` (stereo unspecified) [2-(naphthalene-2-sulfonamido)-3-phenyl-N-{1-[(5-sulfanyl-1,3,4-thiadiazol-2-yl)carbamoyl]ethyl}propanamide] gave a Ki of 40 µM.
